Measured values: patent US20210380548A1, “Fused [1,2,4]Thiadiazine Derivatives Which Act as KAT Inhibitors of the MYST Family” (CTxT Pty Limited, priority 2017, published 2021)

Experiments:
HBO-KAT7 [1] = molecular target: T1, HBO-KAT7 (Homo sapiens, UniProt O95251); test: Revised Acetyltransferase Biochemical Assay, KAT7; details: Table 9 (HBO-KAT7), 1 μM Acetyl coenzyme A
T1 construct: encoding amino acid residues 325 to 611 (Uniprot 095251-1) of human KAT7; made in house; host or cells: E. coli BL21 DE3 RIL
T1 sequence (O95251 with tags, fused parts or gaps): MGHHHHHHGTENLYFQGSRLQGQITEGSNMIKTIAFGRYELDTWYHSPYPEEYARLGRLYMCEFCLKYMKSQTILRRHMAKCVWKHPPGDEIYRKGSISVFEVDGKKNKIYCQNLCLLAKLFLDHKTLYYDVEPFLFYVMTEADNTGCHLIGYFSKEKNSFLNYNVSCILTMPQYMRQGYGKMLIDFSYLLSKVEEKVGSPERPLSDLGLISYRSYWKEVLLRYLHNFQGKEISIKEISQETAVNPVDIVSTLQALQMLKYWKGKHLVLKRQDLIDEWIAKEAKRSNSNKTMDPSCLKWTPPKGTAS

MOZ-KAT6A = molecular target: T2, MOZ-KAT6A (Homo sapiens, UniProt Q92794, A567V); test: Revised Acetyltransferase Biochemical Assay, KAT6A; details: Table 8 (MOZ-KAT6A), 1 μM Acetyl coenzyme A
T2 construct: encoding amino acid residues 507 to 778 (Uniprot Q92794-1) of human KAT6A; made in house; host or cells: E. coli BL21 DE3
T2 sequence (Q92794 507-778 A567V limits assumed): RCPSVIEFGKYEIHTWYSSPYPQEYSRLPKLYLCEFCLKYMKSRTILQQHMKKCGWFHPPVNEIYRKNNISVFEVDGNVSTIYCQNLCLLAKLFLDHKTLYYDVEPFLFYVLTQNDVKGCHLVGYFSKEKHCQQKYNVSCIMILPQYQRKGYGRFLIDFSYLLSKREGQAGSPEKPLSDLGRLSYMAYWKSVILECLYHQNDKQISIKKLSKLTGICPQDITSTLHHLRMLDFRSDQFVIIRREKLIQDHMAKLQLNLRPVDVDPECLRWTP

TIP60-KAT5 [2] = molecular target: T3, TIP60-KAT5 (Homo sapiens, UniProt Q92993); test: Acetyltransferase biochemical assay (AlphaScreen), KAT5; details: Table 1 (TIP60-KAT5); 0.4 μM Acetyl coenzyme A, histone H4, 10 nM enzyme
T3 construct: encoding amino acid residues 2 to 461 (Uniprot Q92993-2) of human KAT5 isoform; made in house; host or cells: E. coli BL21 DE3
T3 sequence (Q92993 2-461 isoform Q92993-2): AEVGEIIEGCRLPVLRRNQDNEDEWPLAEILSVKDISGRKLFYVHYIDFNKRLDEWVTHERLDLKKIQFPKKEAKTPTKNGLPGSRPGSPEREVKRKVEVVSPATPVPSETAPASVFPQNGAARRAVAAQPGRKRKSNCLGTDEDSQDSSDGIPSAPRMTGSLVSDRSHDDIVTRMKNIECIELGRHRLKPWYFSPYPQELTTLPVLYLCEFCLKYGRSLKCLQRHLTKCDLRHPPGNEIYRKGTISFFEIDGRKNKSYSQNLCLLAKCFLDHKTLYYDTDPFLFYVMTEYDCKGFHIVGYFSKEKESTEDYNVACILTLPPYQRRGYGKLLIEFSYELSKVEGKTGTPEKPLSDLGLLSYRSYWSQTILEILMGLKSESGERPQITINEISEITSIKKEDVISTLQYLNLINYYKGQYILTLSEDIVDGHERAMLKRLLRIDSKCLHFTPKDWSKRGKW

TIP60-KAT5 [3] = molecular target: T3, TIP60-KAT5; test: Revised Acetyltransferase Biochemical Assay, KAT5; details: 10 nM KAT5, 1 μM AcCoA, 100 nM histone H4, 90 min
HBO-KAT7 [4] = molecular target: T1, HBO-KAT7; test: Acetyltransferase biochemical assay (AlphaScreen), KAT7; details: Table 3 (HBO-KAT7); 0.4 μM Acetyl coenzyme A, histone H3.1, 40 nM enzyme

Row | Compound | IC50 (HBO-KAT7 [1]) [µM] | IC50 (MOZ-KAT6A) [µM] | IC50 (TIP60-KAT5 [2]) [µM] | IC50 (TIP60-KAT5 [3]) [µM] | IC50 (HBO-KAT7 [4]) [µM]
1 | O=C(NCCc1ccccc1C(=O)O)C1=Nc2ccccc2S(=O)(=O)N1 [Example 30, 2-(2-(1,1-Dioxido-2H-benzo[e][1,2,4]thiadiazine-3-carboxamido)ethyl)benzoic Acid] |  |  | 112 |  | 
2 | Cn1cc(-c2ccccc2CCNC(=O)C2=Nc3ccccc3S(=O)(=O)N2)cn1 [Example 40, N-(2-(1-methyl-1H-pyrazol-4-yl)phenethyl)-2H-benzo[e][1,2,4]thiadiazine-3-carboxamide 1,1-dioxide] |  |  | > 125 |  | 9.45
3 | C#Cc1ccc2c(c1)S(=O)(=O)NC(C(=O)NCC(c1ccccc1)c1ncco1)=N2 (stereo not shown) [Example 42, 7-ethynyl-N-(2-(oxazol-2-yl)-2-phenylethyl)-2H-benzo[e][1,2,4]thiadiazine-3-carboxamide 1,1-dioxide] |  |  | 0.642 |  | 0.255
4 | O=C(NCC(C(=O)N1CCCC1)c1ccccc1)C1=Nc2ccccc2S(=O)(=O)N1 (stereo not shown) [Example 44, N-(3-oxo-2-phenyl-3-(pyrrolidin-1-yl)propyl)-2H-benzo[e][1,2,4]thiadiazine-3-carboxamide 1,1-dioxide] |  |  | > 125 |  | 
5 | CC(C)OC(=O)NC(CNC(=O)C1=Nc2ccccc2S(=O)(=O)N1)c1ccccc1 (stereo not shown) [Example 50, Isopropyl (2-(1,1-dioxido-2H-benzo[e][1,2,4]thiadiazine-3-carboxamido)-1-phenylethyl) carbamate] | 49.1 | 6.19 |  | > 125 | 
6 | COC(CNC(=O)C1=Nc2ccc(I)cc2S(=O)(=O)N1)c1ccccc1OC(F)F (stereo not shown) [Example 58, N-(2-(2-(difluoromethoxy)phenyl)-2-methoxyethyl)-7-iodo-2H-benzo[e][1,2,4]thiadiazine-3-carboxamide 1,1-dioxide] |  |  | 2.58 |  | 1.59
7 | O=C(NCC(O)c1ccccc1F)C1=Nc2ccc(I)cc2S(=O)(=O)N1 (stereo not shown) [Example 89] |  |  | 2.06 |  | 3.37
8 | O=C(NCCc1ccccc1O)C1=Nc2ccc(I)cc2S(=O)(=O)N1 [Example 90] |  |  | 0.96 |  | 0.915
9 | COc1ccccc1C(O)CNC(=O)C1=Nc2ccc(I)cc2S(=O)(=O)N1 (stereo not shown) [Example 94] |  |  | 2.82 |  | 3.8
10 | O=C(NCC(O)c1ccccc1C(F)(F)F)C1=Nc2ccc(I)cc2S(=O)(=O)N1 (stereo not shown) [Example 95] |  |  | 5.18 |  | 4.22
11 | O=C(NCCc1ccc(CO)cc1)C1=Nc2ccc(I)cc2S(=O)(=O)N1 [Example 103] |  |  | > 125 |  | > 125
12 | O=C(NCCc1ccncc1)C1=Nc2ccc(I)cc2S(=O)(=O)N1 [Example 104] |  |  | > 125 |  | > 125
13 | COc1ccc(CCNC(=O)C2=Nc3ccc(I)cc3S(=O)(=O)N2)cc1 [Example 106] |  |  | > 125 |  | > 125
14 | O=C(NCCc1ccccc1CO)C1=Nc2ccc(I)cc2S(=O)(=O)N1 [Example 109, N-(2-(hydroxymethyl)phenethyl)-7-iodo-2H-benzo[e][1,2,4]thiadiazine-3-carboxamide 1,1-dioxide] |  |  | 3.42 |  | 5.95
15 | CNC(=O)c1ccccc1CCNC(=O)C1=Nc2ccc(I)cc2S(=O)(=O)N1 [Example 110] |  |  | 75.6 |  | 101
16 | CN(C)C(=O)c1ccccc1CCNC(=O)C1=Nc2ccc(I)cc2S(=O)(=O)N1 [Example 111] |  |  | 16.6 |  | 81.4
17 | COc1cccc(C(O)CNC(=O)C2=Nc3ccc(I)cc3S(=O)(=O)N2)c1 (stereo not shown) [Example 121] |  |  | 40.8 |  | 47
18 | O=C(NCC(F)c1ccccc1)C1=Nc2ccc(I)cc2S(=O)(=O)N1 (stereo not shown) [Example 123] |  |  | 5.01 |  | 1.72
19 | O=C(NCC(O)c1ccc(Cl)cc1)C1=Nc2ccc(I)cc2S(=O)(=O)N1 (stereo not shown) [Example 125] |  |  | > 125 |  | > 125
20 | O=C(NCCc1ccccc1C(=O)O)C1=Nc2ccc(I)cc2S(=O)(=O)N1 [Example 155, 2-(2-(7-Iodo-1,1-dioxido-2H-benzo[e][1,2,4]thiadiazine-3-carboxamido)ethyl)benzoic Acid] | 9.52 | 0.595 |  | 2.68 | 
21 | O=C(NCC(c1ccccc1)c1nnc(C(F)F)o1)C1=Nc2ccc(I)cc2S(=O)(=O)N1 (stereo not shown) [Example 185] | 0.264 | 0.042 |  | 0.994 | 
22 | COCc1ccccc1C(CNC(=O)C1=Nc2ccccc2S(=O)(=O)N1)c1ncco1 (stereo not shown) [Example 194] | 26 | 5.56 |  | ≥ 125 | 
23 | O=C(NCCc1ccccc1-c1n[nH]c(=O)o1)C1=Nc2ccccc2S(=O)(=O)N1 [Example 195] | 2.21 | 0.209 |  | 1.85 | 
24 | O=C(NCC(O)C1CCCCC1)C1=Nc2ccc(Cl)cc2S(=O)(=O)N1 (stereo not shown) [Example 200] | > 125 | 9.8 |  | > 125 | 
25 | CC(N)c1ccc2c(c1)S(=O)(=O)NC(C(=O)NCC(c1ccccc1)c1ncco1)=N2 (stereo not shown) [Example 208, 7-(1-Aminoethyl)-N-(2-(oxazol-2-yl)-2-phenylethyl)-2H-benzo[e][1,2,4]thiadiazine-3-carboxamide 1,1-dioxide] | 4.51 | 1.6 |  | 13.3 | 
26 | CNC(C)c1ccc2c(c1)S(=O)(=O)NC(C(=O)NCC(c1ccccc1)c1ncco1)=N2 (stereo not shown) [Example 209, 7-(1-(Methylamino)ethyl)-N-(2-(oxazol-2-yl)-2-phenylethyl)-2H-benzo[e][1,2,4]thiadiazine-3-carboxamide 1,1-dioxide] | 1.67 | 0.378 |  | 8.45 | 

The next lines start with the values.

Row | IC50 (HBO-KAT7 [1]) [µM] | IC50 (MOZ-KAT6A) [µM] | IC50 (TIP60-KAT5 [2]) [µM] | IC50 (TIP60-KAT5 [3]) [µM] | IC50 (HBO-KAT7 [4]) [µM] | Compound
27 | 3.59 | 1.02 | 3.17 | 1.38 |  | COc1ccccc1C(O)CNC(=O)C1=Nc2ccc(I)cc2S(=O)(=O)N1 (single isomer, unassigned) [Example 150]
28 | 21.3 | 18.7 | 90.1 | > 125 |  | Cc1ncccc1-c1ccccc1CCNC(=O)C1=Nc2ccccc2S(=O)(=O)N1 [Example 6, N-(2-(2-Methylpyridin-3-yl)phenethyl)-2H-benzo[e][1,2,4]thiadiazine-3-carboxamide 1,1-dioxide]
29 |  |  | 10.1 |  | 26.4 | CCOC(=O)C(CNC(=O)C1=Nc2ccccc2S(=O)(=O)N1)c1ccccc1 (stereo not shown) [Example 73, ethyl 3-(1,1-dioxido-2H-benzo[e][1,2,4]thiadiazine-3-carboxamido)-2-phenylpropanoate]
30 |  |  | 46.3 |  | > 125 | O=C(NCCc1ccc(O)cc1)C1=Nc2ccc(I)cc2S(=O)(=O)N1 [Example 105]
31 |  |  | 5.26 |  | 18.5 | O=C(NCC(O)c1ccccc1OCc1ccccc1)C1=Nc2ccc(I)cc2S(=O)(=O)N1 (stereo not shown) [Example 119]
32 |  |  | 24.6 |  | 18.7 | O=C(NCC(O)c1cccc(Cl)c1)C1=Nc2ccc(I)cc2S(=O)(=O)N1 (stereo not shown) [Example 124]
33 |  |  | 31.3 |  | 12.4 | O=C(NCC(O)c1cccc(F)c1)C1=Nc2ccc(I)cc2S(=O)(=O)N1 (stereo not shown) [Example 126]
34 | 2.3 | 0.613 |  | 11.1 |  | O=C(NCCc1ccccc1-n1ccnc1)C1=Nc2ccc(I)cc2S(=O)(=O)N1 [Example 192]
35 | 2.73 | 0.97 |  | 30 |  | O=C(NCC1(c2ccccc2)CCCC1)C1=Nc2ccccc2S(=O)(=O)N1 [Example 205]
36 | 1.12 | 0.303 |  | 10.9 |  | CC(NS(C)(=O)=O)c1ccc2c(c1)S(=O)(=O)NC(C(=O)NCC(c1ccccc1)c1ncco1)=N2 (stereo not shown) [Example 210, 7-(1-(Methylsulfonamido)ethyl)-N-(2-(oxazol-2-yl)-2-phenylethyl)-2H-benzo[e][1,2,4]thiadiazine-3-carboxamide 1,1-dioxide]
37 | 6.07 | 2.18 |  | 24.7 |  | CC(=O)NC(C)c1ccc2c(c1)S(=O)(=O)NC(C(=O)NCC(c1ccccc1)c1ncco1)=N2 (stereo not shown) [Example 211, 7-(1-Acetamidoethyl)-N-(2-(oxazol-2-yl)-2-phenylethyl)-2H-benzo[e][1,2,4]thiadiazine-3-carboxamide 1,1-dioxide]
38 | 1.01 | 0.216 |  | 3.32 |  | COc1ccc2c(c1)S(=O)(=O)NC(C(=O)NCC(c1cccc(Cl)c1)c1ncco1)=N2 (stereo not shown) [Example 223, N-(2-(3-Chlorophenyl)-2-(oxazol-2-yl)ethyl)-7-methoxy-2H-benzo[e][1,2,4]thiadiazine-3-carboxamide 1,1-dioxide]
39 | 0.204 | 0.165 |  | 9.01 |  | O=C(NCC(c1cccc(Cl)c1)c1ncco1)C1=Nc2ccc(O)cc2S(=O)(=O)N1 (stereo not shown) [Example 224, N-(2-(3-chlorophenyl)-2-(oxazol-2-yl)ethyl)-7-hydroxy-2H-benzo[e][1,2,4]thiadiazine-3-carboxamide 1,1-dioxide]
40 | 2.3 | 0.761 |  | 4.9 |  | NC(=O)c1ccccc1CCNC(=O)C1=Nc2ccc(I)cc2S(=O)(=O)N1 [Example 230, N-(2-Carbamoylphenethyl)-7-iodo-2H-benzo[e][1,2,4]thiadiazine-3-carboxamide 1,1-dioxide]
41 | 33 | 2.77 |  | 123 |  | O=C(NCC1(c2ncco2)CCCC1)C1=Nc2ccccc2S(=O)(=O)N1 [Example 242, N-((1-(oxazol-2-yl)cyclopentyl)methyl)-2H-benzo[e][1,2,4]thiadiazine-3-carboxamide 1,1-dioxide]
